The subject of one test is GLI1 protein. Description: Western blot of GLI1 after stimulation with SMO agonist. Particulars: human MC lines (ROSA KIT WT, KIT D816V), purmorphamine 2 or 5 μM, 12 or 24 hours. The format is cell-based.
The next test has as its system ROSA KIT WT. Description: Kinetic cell proliferation assay, IncuCyte Live Cell analysis system. In kind it is cell-based, human. As to conditions: increasing doses (10 to 50 μM), 144 hours. How it is done: (§1) The human MCL-derived cell line HMC-1 was kindly provided by Dr. Michel Arock, Paris, France. Two sub-clones were used, namely HMC-1.1 expressing KIT V560G, and HMC-1.2 expressing KIT V560G and KIT D816V.
(§2) Human primary mast cells, patient's leukemic mast cells and ROSA KIT-WT cell line were cultured in Iscove's modified Dulbecco's Medium (IMDM)-Glutamax® (Invitrogen) supplemented with the penicillin/streptomycin 100 U/ml (P/S) (Invitrogen), 1% of sodium pyruvate (Invitrogen), 1% of vitamins (Invitrogen), 1% of glutamine (Invitrogen), 2% of non-essential amino acids (Invitrogen), 1% of a commercial solution of insulin-transferrin-sodium selenite (Invitrogen), 0.3% of albumin bovine (BSA) in presence of human SCF at 100 ng/ml (Milteny biotech). “ROSA KIT D816V”, “ROSA KIT Delta 417-419 insY” mast cells and HMC-1 lines which have mutated KIT receptor (CD117) grow in the same media described above but in absence of hSCF.
(§3) Kinetic cell proliferation assays were performed using the IncuCyte® Live Cell analysis system with 10 000 cells/well in triplicate and during one week in presence or absence of chemicals compounds, Gant61, Vismodegib and, individually or in combination, to determine their effect on mast cell proliferation. Compounds were added the first day at different doses and the media was not changed over the 7 days. At the end of the week, mast cells death was investigated by flow cytometry using 7-AAD viability staining solution.

For the next test, the system named is ROSA KIT D816V. Described as above. In kind it is cell-based, human. As to conditions: increasing doses (10 to 50 μM), 144 hours. As for the experimental part:
as §1, §2, §3

The next test has as its system mast cells. Description: Mast cell death by flow cytometry, 7-AAD viability staining. In kind it is cell-based, human. How it is done: as §1, §2, §3
(In general: Flow cytometry measures light scatter and fluorescence of single cells or particles in a stream.)

The test system of a further test is ROSA KIT K417. Nature of the test: Kinetic cell proliferation assay, IncuCyte Live Cell analysis system. The format is cell-based, human. As to conditions: ROSA KIT K417, increasing doses (10 to 50 μM), 144 hours.
For test [1], the system named is conventional PKC isoforms (α, β, and γ), Syk, FLK1, Akt, PKA, c-Kit, C-Fgr, c-Src, FLT3, PDFRβ, VEGFR1, and VEGFR2. Particulars: several serine/threonine and tyrosine kinases; cited from earlier work.
The subject of another test is ROSA WT. Description: Western blot of proteins associated with cell proliferation or apoptosis. In kind it is cell-based, human. As to conditions: increasing doses. How it is done:
as §1, §2
(§4) After an overnight starvation of 5 million cells from each kind of cells described above, cells were treated with different doses of chemical agonists (such as purmorfamine) or antagonists (such as Gant61) of HH pathway and for several time-laps. Cells were then collected to extract RNA or proteins to perform gene expression analysis by RT-qPCR or western blot analysis. […]

The subject of another test is ROSA D816V. The description is as above. In kind it is cell-based, human. Particulars: increasing doses. As for the experimental part: as §1, §2, §4
The test system of another test is leukemic MC. Description: Leukemic mast cell death. In kind it is cell-based, human. Particulars: data not shown. As for the experimental part: as §1, §2
Kinetic cell proliferation assays were performed using the IncuCyte® Live Cell analysis system with 10 000 cells/well in triplicate and during one week in presence or absence of chemicals compounds, Gant61, Vismodegib and, individually or in combination, to determine their effect on mast cell proliferation. Compounds were added the first day at different doses and the media was not changed over the 7 days. […]

Protocol for GLI1 protein: After an overnight starvation of 5 million cells from each kind of cells described above, cells were treated with different doses of chemical agonists (such as purmorfamine) or antagonists (such as Gant61) of HH pathway and for several time-laps. Cells were then collected to extract RNA or proteins to perform gene expression analysis by RT-qPCR or western blot analysis. Hedgehog genes Gli1-2-3, Smo, Patch receptors, SHH-IHH-DHH ligands and the tumor supressor Bcl2 gene were investigated. Hedgehog proteins (Gli1 and Gli3), proteins involved in apoptosis (Bcl2, caspase3, Bcl-xl) and in PI3K/AKT/mTOR pathway were investigated.

Regarding `c1ccc2c(Oc3nc(Nc4ccc(N5CCOCC5)cc4)c4ncn(C5CCCCC5)c4n3)cccc2c1` [purmorphamine], the GLI1 expression entry in the test with GLI1 protein is given as “clearly increased”.
For the molecule `CS(=O)(=O)c1ccc(C(=O)Nc2ccc(Cl)c(-c3ccccn3)c2)c(Cl)c1` [vismodegib], the “proliferation (percentage of confluence)” value with ROSA KIT WT, in the test with ROSA KIT D816V and with ROSA KIT K417 was “prevented the proliferation” throughout. The “induction of cell death compared with GANT61” value in the test on mast cells (whatever the cell type, data not shown) is recorded as “much less important”.
In general, IC50 refers to the concentration that gives 50% inhibition. Turning to `CO[C@@H]1[C@H](N(C)C(=O)c2ccccc2)C[C@H]2O[C@]1(C)n1c3ccccc3c3c4c(c5c6ccccc6n2c5c31)C(=O)NC4` [PKC 412, N-[(9S,10R,11R,13R)-2,3,10,11,12,13-hexahydro-10-methoxy-9-methyl-1-oxo-9,13-epoxy-1H,9H-diindolo[1,2,3-gh:3′,2′,1′-lm]pyrrolo[3,4-j][1,7]benzodiazonin-11-yl]-N-methyl-benzamide], the IC50 in test [1] was 80 to 500 nM.
For `CN(C)c1ccccc1CN1CCCN(Cc2ccccc2N(C)C)C1c1ccncc1` [GANT61], the “Expression levels of mTOR, p-AKT, AKT, MYC, Caspase3, BCL2, and BCLX-L proteins” value with ROSA WT and in the test with ROSA D816V was “decreased” in each case. For the same molecule, the “leukemic MC death” value in the test on leukemic MC was “induced leukemic MC death”. In addition, the “proliferation (percentage of confluence)” value in the test with ROSA KIT WT, with ROSA KIT D816V and in the test on ROSA KIT K417 was “inhibited” each time. Moreover, the mast cells death is 5% in the test on mast cells (GANT61 5 μM) and “more than 90%” in the test on mast cells (GANT61 50 μM, data not shown).

These data come from patent US11389434B2, “Methods and pharmaceutical compositions for the treatment of mast cell diseases” (INSERM (INSTITUT NATIONAL DE LA SANTE ET DE LA RECHERCHE …, priority 2017, dated 2022).
